Test results published in ChEMBL document CHEMBL1201862, “PubChem BioAssay data set” (2004).
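Exposure lasted 48 hours, with cells grown in 96-well plates and compounds tested at five concentrations. GI50 is the concentration that inhibits growth by half.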 Activity calls are given as the source filed them. No stated cut-off is given here; in the data, active = GI50 up to about 1.1 µM and inactive = higher.

How the values were obtained:
Assay in all cases: DTP human tumour cell line panel, 48 h
NCI/ADR-RES = test system: NCI/ADR-RES
UACC-62 = test system: UACC-62
UACC-257 = test system: UACC-257
NCI-H23 = test system: NCI-H23
A498 = test system: A498
SF-268 = test system: SF-268
HT-29 = test system: HT-29
PC-3 = test system: PC-3
SK-OV-3 = test system: SK-OV-3
TK-10 = test system: TK-10
Hs-578T = test system: Hs-578T
SK-MEL-5 = test system: SK-MEL-5
Malme-3M = test system: Malme-3M
MDA-N = test system: MDA-N
SR = test system: SR
HCT-116 = test system: HCT-116
KM12 = test system: KM12
MOLT-4 = test system: MOLT-4
EKVX = test system: EKVX
RPMI-8226 = test system: RPMI-8226

Row | Structure (SMILES) | GI50 (NCI/ADR-RES) | GI50 (UACC-62) | GI50 (UACC-257) | GI50 (NCI-H23) | GI50 (A498) | GI50 (SF-268) | GI50 (HT-29) | GI50 (PC-3) | GI50 (SK-OV-3) | GI50 (TK-10) | GI50 (Hs-578T) | GI50 (SK-MEL-5) | GI50 (Malme-3M) | GI50 (MDA-N) | GI50 (SR) | GI50 (HCT-116) | GI50 (KM12) | GI50 (MOLT-4) | GI50 (EKVX) | GI50 (RPMI-8226)
1 | O=c1[nH]c(Nc2nc3ccccc3[nH]2)nc(O)c1-c1ccccc1 | > 100 µM (inactive) | > 100 µM (inactive) | > 100 µM (inactive) | > 100 µM (inactive) | > 100 µM (inactive) | > 100 µM (inactive) | > 100 µM (inactive) | > 100 µM (inactive) | > 100 µM (inactive) | > 100 µM (inactive) | 72.3 µM (inactive) | > 100 µM (inactive) | > 100 µM (inactive) | > 100 µM (inactive) | > 100 µM (inactive) | > 100 µM (inactive) | – | – | – | –
2 | CC(C)=CCC/C(C)=C/CC/C(C)=C/CC/C(C)=C/CC/C(C)=C\CC/C(C)=C/CC/C(C)=C/CC/C(C)=C/Cc1cc(O)ccc1O | 0.459 µM (active) | 0.157 µM (active) | 0.387 µM (active) | 0.361 µM (active) | 0.993 µM (active) | 2.01 µM (inactive) | 1.11 µM (active) | 0.689 µM (active) | 4.06 µM (inactive) | 1.41 µM (inactive) | 3.33 µM (inactive) | 0.294 µM (active) | 0.292 µM (active) | 0.236 µM (active) | 0.43 µM (active) | 0.561 µM (active) | 0.632 µM (active) | 1.93 µM (inactive) | 2.31 µM (inactive) | –
3 | CC(C)[C@@H](C)[C@@]1(C)C[C@@H]1[C@@H](C)[C@H]1CC[C@@H]([C@@H]2CC=C3C[C@@H](O)CC[C@]3(C)C2=O)[C@]1(C)CCO | 13.4 µM (inactive) | 14.6 µM (inactive) | 14.3 µM (inactive) | 14.1 µM (inactive) | 15.3 µM (inactive) | 15.5 µM (inactive) | 2.58 µM (inactive) | 10.1 µM (inactive) | – | 11.5 µM (inactive) | 10.3 µM (inactive) | 13.1 µM (inactive) | 14 µM (inactive) | 13.3 µM (inactive) | 2.69 µM (inactive) | 10.1 µM (inactive) | 2.82 µM (inactive) | 4.17 µM (inactive) | 12.9 µM (inactive) | 12.2 µM (inactive)
4 | C/C=C1/CN2CCc3c([nH]c4ccccc34)[C@@H]2C[C@@H]1Cc1nccc2c1[nH]c1cc(O)ccc12 | 1.72 µM (inactive) | 2.07 µM (inactive) | 2.41 µM (inactive) | 2.1 µM (inactive) | 1.93 µM (inactive) | 1.77 µM (inactive) | 1.87 µM (inactive) | 2.25 µM (inactive) | 2.17 µM (inactive) | 1.95 µM (inactive) | 2.23 µM (inactive) | 1.57 µM (inactive) | – | 2.01 µM (inactive) | 11.7 µM (inactive) | 1.67 µM (inactive) | 1.95 µM (inactive) | 2.58 µM (inactive) | 2.07 µM (inactive) | –
5 | O=C(NCCCN(CCCCN(CCCNC(=O)c1cc(S(=O)(=O)O)cc(O)c1O)C(=O)c1cc(S(=O)(=O)O)cc(O)c1O)C(=O)c1cc(S(=O)(=O)O)cc(O)c1O)c1cc(S(=O)(=O)O)cc(O)c1O | > 100 µM (inactive) | > 100 µM (inactive) | > 100 µM (inactive) | > 100 µM (inactive) | > 100 µM (inactive) | > 100 µM (inactive) | > 100 µM (inactive) | > 100 µM (inactive) | – | > 100 µM (inactive) | > 100 µM (inactive) | > 100 µM (inactive) | > 100 µM (inactive) | > 100 µM (inactive) | 60.4 µM (inactive) | > 100 µM (inactive) | > 100 µM (inactive) | – | – | –
